# Key:
# SH-SY5Y [1] = assay: Neuroprotective activity against glutamate-induced neurotoxicity in human SH-SY5Y cells assessed as cell viability at 50 uM incubated for 30 mins prior to glutamate challenge measured after 24 hrs by MTT assay (reference value: 73.8 +/- 4.5%); format: functional; conditions: read-out: Activity
# [2] = molecular target: RAC-beta serine/threonine-protein kinase (Homo sapiens) (UniProt P31751); assay: Inhibition of PKBbeta (unknown origin) at 0.5 uM relative to control
# [3] = molecular target: Glycogen synthase kinase-3 beta (Homo sapiens) (UniProt P49841); assay: Inhibition of GSK3beta (unknown origin) at 0.5 uM relative to control
# [4] = molecular target: Cyclin-dependent kinase 9 (Homo sapiens) (UniProt P50750); assay: Inhibition of CDK9 (unknown origin) at 0.5 uM relative to control
# [5] = molecular target: T1, Aurora kinase A (Homo sapiens) (UniProt O14965); assay: Inhibition of Aurora A (unknown origin) at 0.5 uM relative to control
# T1 sequence (whole entry): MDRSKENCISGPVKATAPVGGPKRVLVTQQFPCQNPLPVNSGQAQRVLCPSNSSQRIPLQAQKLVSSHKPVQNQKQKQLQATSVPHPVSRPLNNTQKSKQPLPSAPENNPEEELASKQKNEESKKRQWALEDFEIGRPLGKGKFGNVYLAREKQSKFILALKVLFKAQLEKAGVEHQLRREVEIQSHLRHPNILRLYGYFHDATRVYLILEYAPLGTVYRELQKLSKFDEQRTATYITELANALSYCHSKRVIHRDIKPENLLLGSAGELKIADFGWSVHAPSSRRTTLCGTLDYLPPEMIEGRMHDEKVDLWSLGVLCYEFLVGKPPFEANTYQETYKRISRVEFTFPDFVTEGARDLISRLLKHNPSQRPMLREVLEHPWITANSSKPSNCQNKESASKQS
# [6] = molecular target: AMP-activated protein kinase, AMPK (Homo sapiens) (UniProt P54646+O43741+P54619+Q9UGJ0+Q9Y478+Q13131+Q9UGI9); assay: Inhibition of AMPK (unknown origin) at 0.5 uM relative to control; format: protein-complex assay
# SH-SY5Y [7] = assay: cells; conditions: Homo sapiens, 24 h
# Chain of RAC-beta serine/threonine-protein kinase (Homo sapiens) (P31751 whole entry): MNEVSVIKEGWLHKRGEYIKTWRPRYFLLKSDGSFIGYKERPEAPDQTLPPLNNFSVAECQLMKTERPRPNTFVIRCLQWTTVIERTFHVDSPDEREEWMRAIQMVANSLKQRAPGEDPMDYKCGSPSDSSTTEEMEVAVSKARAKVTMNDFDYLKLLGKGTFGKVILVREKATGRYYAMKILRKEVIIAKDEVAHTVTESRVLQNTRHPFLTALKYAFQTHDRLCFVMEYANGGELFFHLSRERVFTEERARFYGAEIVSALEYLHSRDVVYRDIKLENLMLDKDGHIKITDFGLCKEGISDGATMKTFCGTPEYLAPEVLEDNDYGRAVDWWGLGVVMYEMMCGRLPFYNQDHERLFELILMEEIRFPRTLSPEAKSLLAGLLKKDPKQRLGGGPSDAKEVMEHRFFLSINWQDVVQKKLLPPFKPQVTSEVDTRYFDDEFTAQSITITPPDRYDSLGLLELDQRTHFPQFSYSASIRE
# Chain of Glycogen synthase kinase-3 beta (Homo sapiens) (P49841 whole entry, looked up): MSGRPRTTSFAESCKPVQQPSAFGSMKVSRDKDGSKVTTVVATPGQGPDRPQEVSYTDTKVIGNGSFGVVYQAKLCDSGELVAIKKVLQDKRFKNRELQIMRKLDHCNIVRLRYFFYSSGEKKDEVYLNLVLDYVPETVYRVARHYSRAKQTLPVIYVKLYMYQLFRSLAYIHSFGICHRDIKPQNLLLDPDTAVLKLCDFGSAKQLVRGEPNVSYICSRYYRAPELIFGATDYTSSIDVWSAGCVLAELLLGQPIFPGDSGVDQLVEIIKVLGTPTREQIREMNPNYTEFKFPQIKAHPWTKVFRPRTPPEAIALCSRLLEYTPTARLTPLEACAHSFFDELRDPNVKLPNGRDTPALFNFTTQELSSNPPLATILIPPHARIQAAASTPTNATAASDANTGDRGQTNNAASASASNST
# Chain of Cyclin-dependent kinase 9 (Homo sapiens) (P50750 whole entry): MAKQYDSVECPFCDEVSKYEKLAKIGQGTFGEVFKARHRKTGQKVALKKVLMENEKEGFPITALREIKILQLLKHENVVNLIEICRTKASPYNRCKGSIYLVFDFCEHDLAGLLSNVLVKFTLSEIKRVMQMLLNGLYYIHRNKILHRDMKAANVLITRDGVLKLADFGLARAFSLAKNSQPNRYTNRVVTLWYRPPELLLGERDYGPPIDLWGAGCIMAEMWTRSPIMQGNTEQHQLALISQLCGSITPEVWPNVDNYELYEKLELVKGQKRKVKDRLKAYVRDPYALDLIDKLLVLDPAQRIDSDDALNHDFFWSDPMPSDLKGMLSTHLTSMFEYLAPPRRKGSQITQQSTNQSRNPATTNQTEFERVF
smiles,measurement,setting,value
Nc1nccc(-c2cn(C(=O)N3CCOCC3)c3ccc(Br)cc23)n1,viability at 50 µM,SH-SY5Y [1],86.4%
same,inhibition,[2],12.6%
same,inhibition,[3],22.7%
same,inhibition,[4],12.6%
same,inhibition,[5],0%
same,inhibition,[6],4.4%
same,IC50,SH-SY5Y [7],> 100 µM
